Columns and labels:
MRGPRX2 (human sequence) = settings: ref McNeil et al., 2015; cited from earlier work
Excerpt: MRGPRX2 has been recently described as a promiscuous receptor for cationic polymers and drugs that produce direct mast cell degranulation ([McNeil et al., 2015]). […] The contractile effect of MK on the human umbilical vein and ...

male Sprague-Dawley rats [1] = test system: male Sprague-Dawley rats
Method: All surgical and experimental procedures were reviewed and approved by the Animal Care and Handling Committee of Laval University, in accordance with the Canadian Council on Animal Care (file no. 2012-223). Experiments were performed on male Sprague-Dawley rats (300–375 g) purchased from Charles River Laboratories (St-Constant, Qc, Canada). Only animals of the male gender have been studied to be consistent with related and recently published data ([Jean et al., 2016a]). The rats were housed in a temperature-controlled room (22 ± 1 °C) on a 12 h/12 h light-dark cycle (lights on at 0600) and had free access to normal chow diet and tap water. They were allowed to acclimate to their environmental conditions for one week prior to being studied. At the end of the acclimation period, the rats were anesthetised with sodium pentobarbital (50 mg kg^−1, i.p., supplemented as required) and had one catheter implanted into the right jugular vein (for intravenous ( i.v.) injection) and one into the left femoral artery (for direct and continuous measurement of blood pressure and heart rate as previously described, [Jean et al., 2016a]). In some experiments, a miniaturized pulsed Doppler flow probe ([Haywood et al., 1981]) was implanted around the distal abdominal aorta (below the level of the ileocaecal artery) through a midline abdominal incision to monitor changes in hindquarter hemodynamic, according to the method previously developed by [Gardiner & Bennett (1988)] and as previously described ([Bachelard et al., 1992]; [Jean et al., 2016a]). Experiments started at least 30 min following the end of surgery in anesthetised rats.
Baseline heart rate and phasic and mean arterial blood pressure were recorded over a period of 15 min in anesthetized rats. […] Peptides were dissolved in isotonic saline (0.9% NaCl) containing 0.1% BSA to prevent the adsorption of peptide to the glassware and plastic surfaces. All i.v. injections were given as 100 µl boluses which were washed in with a further 100 µl of saline (the dead space of the catheter). Only one peptide was tested per group of rats and each injection started with saline-BSA 0.1% followed by the lowest dose of peptide. The next dose was administered once all recorded cardiovascular parameters had returned to baseline after the previous injection (usually 2–10 min). At the end of the experiments each animal was euthanized with an overdose of sodium pentobarbital (240 mg/kg, i.v.).
In these experiments, enalaprilat was intravenously administered as bolus (0.1 mg/kg, 0.1 ml) following a 10 min period of baseline measurements of heart rate and blood pressure. Fifteen minutes later, a dose–response curve to MK was obtained, as described above. […] In these experiments, icatibant was intravenously administered as bolus (25 µg/kg, 0.1 ml) 15 min before the i.v. injection of increasing doses of MK, as above. […] In these experiments, pyrilamine was intravenously administered as bolus (5 mg/kg, 0.1 ml) 15 min before the i.v. injection of increasing doses of MK, as above.
(§1) Results are presented as means ± s.e.m. Radioligand binding data were fitted by nonlinear regression to a one-site competition equation using a least-square method (Prism 5.0; GraphPad Software Inc., San Diego, CA, USA) and IC50 values calculated from this procedure. The same computer program was used to draw concentration-effect curves (least square fitting of sigmoidal dose–response equation with variable slope) and to derive contractile EC50 values. Data describing baseline values of heart rate and mean arterial blood pressure and hypotensive responses to peptides in anesthetized rats were assessed by using one-way analysis of variance (ANOVA) followed by the Dunnett’s test (repeated comparison with a common control).

[2] = molecular target: T1, human isolated umbilical vein (BK B2R; histamine H1R) (Homo sapiens, UniProt P30411); settings: antagonist 1 µM, 30 min before MK
T1 sequence (P30411 1-391): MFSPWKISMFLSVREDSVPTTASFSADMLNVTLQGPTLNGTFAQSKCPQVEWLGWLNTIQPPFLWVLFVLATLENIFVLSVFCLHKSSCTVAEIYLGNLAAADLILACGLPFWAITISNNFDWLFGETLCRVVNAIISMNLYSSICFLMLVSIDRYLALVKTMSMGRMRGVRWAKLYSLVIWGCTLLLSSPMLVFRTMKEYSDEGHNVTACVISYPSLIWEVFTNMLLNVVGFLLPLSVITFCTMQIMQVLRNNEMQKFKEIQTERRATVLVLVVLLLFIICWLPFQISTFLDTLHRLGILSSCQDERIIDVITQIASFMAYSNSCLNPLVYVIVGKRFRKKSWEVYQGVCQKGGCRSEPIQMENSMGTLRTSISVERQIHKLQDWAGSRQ
Excerpt: The institutional research ethics board (CHU de Québec) approved the anonymous use of human umbilical cord segments obtained after elective cesarean section deliveries (file number: 2012-323). Informed written consent was obtained from mothers.
as §1, with “control). The effects of drugs on the hypotensive responses to each dose of MK were assessed by using ANOVA followed by the Dunnett’s test.” for “control).”

male Sprague-Dawley rats [3] = assay: Acute hindquarter hemodynamic effects in anesthetized rats; assay type: in vivo, rat; settings: icatibant 25 µg/kg i.v., 15 min before
Method: Before each experiment, a 30-min stabilization period was allowed, during which continuous recording of heart rate, phasic and mean blood pressure and phasic and mean Doppler shift signals from the hindquarter probe were made in anesthetized rats, using the Biopac data acquisition and analysis system previously described ([Jean et al., 2016a]). Then, a first group of rats (n = 8) received successive i.v. injections of peptide vehicle (saline-BSA 0.1%), BK (6.4 µg/kg), and MK (1.6 µg/kg). […] Further experiments were made in a second group of rats (n = 6) pretreated with the B2R antagonist, icatibant. […] At the end of the experiments the rats were euthanized with an overdose of anesthetic (pentobarbital 240 mg/kg, i.v.).
Results are presented as means ± s.e.m.

D-Arg-[Hyp^3, Thi^5, D-Tic^7, Oic^8] bradykinin [icatibant]
MRGPRX2-activating concentration over B2R-antagonizing concentration (MRGPRX2 (human sequence)): 5 to 6 orders of magnitude
Basal mean arterial blood pressure after pre-treatment (male Sprague-Dawley rats [1]; 15 min after i.v., enalaprilat 0.1 mg/kg n=6, icatibant 25 µg/kg n=6, pyrilamine 5 mg/kg n=16, means ± s.e.m., control 96.5 ± 2.5): 90.3 ± 4.6
Basal heart rate after pre-treatment (male Sprague-Dawley rats [1]; 15 min after i.v., enalaprilat 0.1 mg/kg n=6, icatibant 25 µg/kg n=6, pyrilamine 5 mg/kg n=16, means ± s.e.m., control 351 ± 10, * P < 0.01 vs control): 362 ± 28
effect of pretreatment on hypotensive effect of MK (male Sprague-Dawley rats [1]; enalaprilat 0.1 mg/kg, icatibant 25 µg/kg, pyrilamine 5 mg/kg i.v., 15 min before MK): abated
effect of receptor antagonist on MK-induced contraction [2]: profound inhibitory effect
effect of icatibant on cardiovascular responses to BK and MK (male Sprague-Dawley rats [3]): all significantly abated
effect of icatibant on cardiovascular responses to BK and MK (male Sprague-Dawley rats [3]; listed as Icatibant): significantly abated all types of responses to the 2 kinins
